Experimental findings from US11104648B2, “Pyrazole derivative” (Zhejiang Research Institute of Chemical Industry Co., Ltd., priority 2018, dated 2021) are described below.

Assay type in all cases: in vivo
Experiment [1] deals with adult Tetranychus cinnabarinus. As to the kind of experiment: Activity assay of adult Tetranychus cinnabarinus (whole-plant spray on bean seedlings). The conditions noted are these: 48 h; for pest or weed control at 1.25 µg/mL: concentration 1.25 mg/L. Here is the method:
According to the solubility of the test compound, the crude drug was dissolved in N, N-dimethlfornamide, and then prepared into a test solution of the desired concentration with 1‰ Tween 80 aqueous solution. The content of N,N-dimethylformamide in the solution should not exceed 10%.
Two euphylla bean seedlings were taken, after inoculated with adult Tetranychus cinnabarinus and the base number was investigated, whole plants were sprayed with a hand-held sprayer. The experiment was repeated three times for each treatment, after treatment, placed in a standard observation room after treatment, to investigate the survival number of mites in 48 hand calculate the death rate.

The subject of experiment [2] is Eggs of Tetranychus Cinnabarinus. As to the kind of experiment: Activity assay of eggs of Tetranychus cinnabarinus (spray method, ovicidal). As to conditions: Tetranychus cinnabarinus; for pest or weed control at 2 µg/mL: concentration 2 mg/L. Here is the method: According to the solubility of the test compound, the crude drug was dissolved in N N-dimethylformamide, and then prepared into a test solution of the desired concentration with 1‰ Tween 80 aqueous solution. The content of N. N-dimethylformamide in the solution should not exceed 10%.
Spray method. The broad bean leaves with petioles were cut and inserted into a bottle with water. A certain number of female mites were placed, 24h later, adult mites were removed, and spray treatment was performed in 24 h. The experiment was repeated three times, and a blank control was set, and placed to an observation room (26±2° C., humidity 70%˜80%, 16h light per day) for culture. When the blank control group was incubated, the results were investigated. The non-incubated ones were used as death for investigation.

For experiment [3], the system named is Tetranychus cinnabarinus Nymphs. As to the kind of experiment: Activity assay of Tetranychus cinnabarinus nymphs (spray on broad bean leaves). The conditions noted are these: 48 h; for pest or weed control at 2.5 µg/mL / pest or weed control at 2 µg/mL: read-out: nymph-killing activity; for pest or weed control at 2 µg/mL: concentration 2 mg/L. Here is the method:
According to the solubility of the test compound, the crude drug was dissolved in N, N-dimethylformamide, and then prepared into a test solution of the desired concentration with 1‰ Tween 80 aqueous solution. The content of N,N-dimethylformamide in the solution should not exceed 10%.
The broad bean leaves with petioles were cut and inserted into a small bottle with water. A certain number of brightly colored, active female adult mites were placed, 24h later, adult mites were removed, and leaves with insufficient eggs were removed. When eggs were hatched and grew into nymphs, spray treatment was performed. The experiment was repeated three times, and a blank control was set, and placed to an observation room (26±2° C., humidity 70%˜80%, 16h light per day) for culture. 48 h later, the results were investigated. The nymphs were gently touched during investigation, and if no response, they were regarded as deaths.

The mark [4] stands for this setting: concentration 2.5 mg/L, read-out: adult mite-killing activity.
[5] abbreviates: concentration 5 mg/L, spray, non-incubated eggs counted as dead, read-out: ovicidal activity.
Setting [6] is: read-out: adult mite-killing activity.
Setting [7] is: spray, read-out: ovicidal activity.

Molecules are shown by their SMILES. Where two headings read alike, the source gives them in different places. Bounds are passed on as bounds.

As for `C=CC(=O)OCO/C(=C(/C#N)c1ccc(C(C)(C)C)cc1)c1cc(C)nn1CC` [Compound 242], the results for the pest or weed control at 2.5 µg/mL in experiment [1] (setting [4]) and in experiment [3] (concentration 2.5 mg/L) were at least 90% and at least 95%, respectively. Also, the pest or weed control at 5 µg/mL in experiment [2] (setting [5]) was at least 90%.

Consider `CCCC(=O)OCO/C(=C(/C#N)c1ccc(C(C)(C)C)cc1)c1c(C)c(C)nn1CC` [Compound 378], for which the figures for the pest or weed control at 2.5 µg/mL in experiment [1] (setting [4]) and in experiment [3] (concentration 2.5 mg/L) were at least 90% and at least 95%, respectively. Also, in experiment [2] (setting [5]), the pest or weed control at 5 µg/mL is at least 90%.

Regarding `CCn1nc(C)c(C)c1/C(OCOC(=O)C(C)C)=C(\C#N)c1ccc(C(C)(C)C)cc1` [Compound 379], the pest or weed control at 2.5 µg/mL in experiment [1] (setting [4]) was at least 90%; in experiment [3] (concentration 2.5 mg/L), at least 95%. In addition, in experiment [2] (setting [5]), the pest or weed control at 5 µg/mL is at least 90%.

In the case of `Cc1cc(/C(OC(C)OC(=O)CC(C)C)=C(\C#N)c2ccc(C(C)(C)C)cc2)n(C)n1` (stereo not drawn) [Compound 32], the pest or weed control at 2.5 µg/mL in experiment [1] (setting [4]) is at least 90%; in experiment [3] (concentration 2.5 mg/L), at least 95%. Moreover, in experiment [2] (setting [5]), the pest or weed control at 5 µg/mL was at least 90%.

For the compound `CCCC(=O)OCO/C(=C(/C#N)c1ccc(C(C)(C)C)cc1)c1cc(C)nn1CC` [Compound 228], the pest or weed control at 2.5 µg/mL in experiment [1] (setting [4]) is at least 90%; in experiment [3] (concentration 2.5 mg/L), at least 95%. In experiment [2] (setting [5]), the pest or weed control at 5 µg/mL is at least 90%.

For `CCC(=O)OC(C)O/C(=C(/C#N)c1ccc(C(C)(C)C)cc1)c1c(Cl)c(C)nn1C` (stereo not drawn) [Compound 102], the pest or weed control at 2.5 µg/mL is at least 90% in experiment [1] (setting [4]) and at least 95% in experiment [3] (concentration 2.5 mg/L). Moreover, in experiment [2] (setting [5]), the pest or weed control at 5 µg/mL was at least 90%.

As to `Cc1cc(/C(OC(C)OC(=O)C2CCCCC2)=C(\C#N)c2ccc(C(C)(C)C)cc2)n(C)n1` (stereo not drawn) [Compound 36], the pest or weed control at 2.5 µg/mL was at least 90% in experiment [1] (setting [4]) and at least 95% in experiment [3] (concentration 2.5 mg/L). Also, the pest or weed control at 5 µg/mL in experiment [2] (setting [5]) was at least 90%.

Consider `Cc1cc(/C(OCOC(=O)C(F)(F)F)=C(\C#N)c2ccc(C(C)(C)C)cc2)n(C)n1` [Compound 13], for which the pest or weed control at 2.5 µg/mL in experiment [1] (setting [4]) was at least 90%; in experiment [3] (concentration 2.5 mg/L) it was at least 95%. Further, the pest or weed control at 5 µg/mL in experiment [2] (setting [5]) is at least 90%.

As for `CCCC(=O)OC(C)O/C(=C(/C#N)c1ccc(C(C)(C)C)cc1)c1cc(C)nn1C` (stereo not drawn) [Compound 28], the figures for the pest or weed control at 2.5 µg/mL in experiment [1] (setting [4]) and in experiment [3] (concentration 2.5 mg/L) were at least 90% and at least 95%, respectively. Also, the pest or weed control at 5 µg/mL in experiment [2] (setting [5]) was at least 90%.

Consider `CCn1nc(C)c(Cl)c1/C(OCOC(=O)C1CC1)=C(\C#N)c1ccc(C(C)(C)C)cc1` [Compound 309], for which, in experiment [1] (setting [6]), the pest or weed control at 1.25 µg/mL was at least 90%. For the same compound, the pest or weed control at 2.5 µg/mL in experiment [1] (setting [4]) was at least 90%; in experiment [3] (concentration 2.5 mg/L) it was at least 95%. Further, the pest or weed control at 2 µg/mL in experiment [2] (setting [7]) and in experiment [3] was at least 90% throughout. In experiment [2] (setting [5]), the pest or weed control at 5 µg/mL is at least 90%.

On to `CCn1nc(C)cc1/C(OC(C)OC(=O)OCC(C)C)=C(\C#N)c1ccc(C(C)(C)C)cc1` (stereo not drawn) [Compound 585], for which the pest or weed control at 1.25 µg/mL in experiment [1] (adult mites, parallel determination, read-out: Death rate (%)) is 100%; in experiment [1] (setting [6]), at least 90%. Moreover, the pest or weed control at 2.5 µg/mL in experiment [1] (setting [4]) was at least 90%; in experiment [3] (concentration 2.5 mg/L), at least 95%. Also, the pest or weed control at 2 µg/mL is at least 90% in experiment [2] (setting [7]); 100% in experiment [2] (eggs, parallel determination, read-out: Death rate (%)); at least 90% in experiment [3]. In addition, the pest or weed control at 5 µg/mL in experiment [2] (setting [5]) was at least 90%. In experiment [3] (nymphs, concentration 0.5 mg/L, parallel determination, read-out: Death rate (%)), the pest or weed control at 0.5 µg/mL came out at 96%.

Turning to `CCSC(=O)OC(C)O/C(=C(/C#N)c1ccc(C(C)(C)C)cc1)c1cc(C)nn1C` (stereo not drawn) [Compound 512], the pest or weed control at 2.5 µg/mL was at least 90% in experiment [1] (setting [4]) and at least 95% in experiment [3] (concentration 2.5 mg/L). Further, in experiment [2] (setting [5]), the pest or weed control at 5 µg/mL is at least 90%.

Consider `Cc1nn(C)c(/C(OC(C)OC(=O)C(F)(F)F)=C(\C#N)c2ccc(C(C)(C)C)cc2)c1C` (stereo not drawn) [Compound 188], for which the values for the pest or weed control at 2.5 µg/mL in experiment [1] (setting [4]) and in experiment [3] (concentration 2.5 mg/L) were at least 90% and at least 95%, respectively. Further, the pest or weed control at 5 µg/mL in experiment [2] (setting [5]) was at least 90%.

Consider `CCCCC(=O)OCO/C(=C(/C#N)c1ccc(C(C)(C)C)cc1)c1c(C)c(C)nn1C` [Compound 156], for which the figures for the pest or weed control at 2.5 µg/mL in experiment [1] (setting [4]) and in experiment [3] (concentration 2.5 mg/L) were at least 90% and at least 95%, respectively. Also, the pest or weed control at 5 µg/mL in experiment [2] (setting [5]) was at least 90%.

For `Cc1nn(C)c(/C(OCOC(=O)c2ccccc2)=C(\C#N)c2ccc(C(C)(C)C)cc2)c1Cl` [Compound 89], the values for the pest or weed control at 2.5 µg/mL in experiment [1] (setting [4]) and in experiment [3] (concentration 2.5 mg/L) were at least 90% and at least 95%, respectively. Also, the pest or weed control at 5 µg/mL in experiment [2] (setting [5]) is at least 90%.

As for `CCn1nc(C)cc1/C(OC(C)OC(=O)c1ccccc1)=C(\C#N)c1ccc(C(C)(C)C)cc1` (stereo not drawn) [Compound 264], the pest or weed control at 2.5 µg/mL in experiment [1] (setting [4]) is at least 90%; in experiment [3] (concentration 2.5 mg/L) it was at least 95%. In addition, the pest or weed control at 5 µg/mL in experiment [2] (setting [5]) was at least 90%.

For `COCC(=O)OC(C)O/C(=C(/C#N)c1ccc(C(C)(C)C)cc1)c1c(Cl)c(C)nn1C` (stereo not drawn) [Compound 108], the pest or weed control at 2.5 µg/mL in experiment [1] (setting [4]) is at least 90%; in experiment [3] (concentration 2.5 mg/L), at least 95%. Moreover, the pest or weed control at 5 µg/mL in experiment [2] (setting [5]) was at least 90%.

With `Cc1nn(C)c(/C(OCOC(=O)C2CC2)=C(\C#N)c2ccc(C(C)(C)C)cc2)c1C` [Compound 159], the figures for the pest or weed control at 2.5 µg/mL in experiment [1] (setting [4]) and in experiment [3] (concentration 2.5 mg/L) were at least 90% and at least 95%, respectively. The pest or weed control at 5 µg/mL in experiment [2] (setting [5]) was at least 90%.

Turning to `CC(=O)OCO/C(=C(/C#N)c1ccc(C(C)(C)C)cc1)c1c(C)c(C)nn1C` [Compound 151], the pest or weed control at 2.5 µg/mL in experiment [1] (setting [4]) was at least 90%; in experiment [3] (concentration 2.5 mg/L), at least 95%. The pest or weed control at 5 µg/mL in experiment [2] (setting [5]) is at least 90%.

For `Cc1cc(/C(OCOC(=O)CF)=C(\C#N)c2ccc(C(C)(C)C)cc2)n(C)n1` [Compound 12], the pest or weed control at 2.5 µg/mL in experiment [1] (setting [6]) was at least 90%; in experiment [3], at least 95%. For the same compound, the pest or weed control at 5 µg/mL in experiment [2] (read-out: ovicidal activity) is at least 90%.

For the compound `CCn1nc(C)c(C)c1/C(OCOC(=O)CSC)=C(\C#N)c1ccc(C(C)(C)C)cc1` [Compound 385], the pest or weed control at 2.5 µg/mL in experiment [1] (setting [4]) was at least 90%; in experiment [3] (concentration 2.5 mg/L), at least 95%. Besides, the pest or weed control at 5 µg/mL in experiment [2] (setting [5]) was at least 90%.

Regarding `CCCCOC(=O)OCO/C(=C(/C#N)c1ccc(C(C)(C)C)cc1)c1cc(C)nn1CC` [Compound 552], the results for the pest or weed control at 2.5 µg/mL in experiment [1] (setting [4]) and in experiment [3] (concentration 2.5 mg/L) were at least 90% and at least 95%, respectively. For the same compound, in experiment [2] (setting [5]), the pest or weed control at 5 µg/mL is at least 90%.

With `Cc1cc(/C(OC(C)OC(=O)OC(C)C)=C(\C#N)c2ccc(C(C)(C)C)cc2)n(C)n1` (stereo not drawn) [Compound 486], the figures for the pest or weed control at 2.5 µg/mL in experiment [1] (setting [4]) and in experiment [3] (concentration 2.5 mg/L) were at least 90% and at least 95%, respectively. Also, in experiment [2] (setting [5]), the pest or weed control at 5 µg/mL is at least 90%.

Regarding `CCn1nc(C)cc1/C(OCOC(=O)C(F)(F)F)=C(\C#N)c1ccc(C(C)(C)C)cc1` [Compound 238], the values for the pest or weed control at 2.5 µg/mL in experiment [1] (setting [4]) and in experiment [3] (concentration 2.5 mg/L) were at least 90% and at least 95%, respectively. Further, the pest or weed control at 5 µg/mL in experiment [2] (setting [5]) was at least 90%.

On to `CCn1nc(C)cc1/C(OC(C)OC(=O)OCCCl)=C(\C#N)c1ccc(C(C)(C)C)cc1` (stereo not drawn) [Compound 590], for which the pest or weed control at 2.5 µg/mL in experiment [1] (setting [4]) is at least 90%; in experiment [3] (concentration 2.5 mg/L), at least 95%. For the same compound, the pest or weed control at 5 µg/mL in experiment [2] (setting [5]) was at least 90%.
